Assay results from ChEMBL document CHEMBL3885861, “Open TG-GATES”.

Species on record: Rattus norvegicus
Experiment: Open TG-GATES - Regimen: Single
Assay type: toxicity, organism-based, Sprague-Dawley
Parameters: regimen Single, gender Male, age 6 weeks
Details: in vivo, po, route gavage; for gamma-GTP / A/G / ALP / AST / BUN / CRE / Ca / Cl / DBIL / GLC / K / LDH / Na / PL / RALB / TBIL / TC / TG / ALT / IP / TP: tissue Plasma; for APTT / Bas / Eos / Fbg / Hb / Ht / Lym / MCH / MCHC / MCV / Mono / Neu / PT / Plat / RBC / Ret / WBC: tissue Blood; for KIDNEY_L / KIDNEY_R / KIDNEY_TOTAL: tissue Kidney; for LIVER: tissue Liver
[1] = 15 mg/kg, 3 h, dose level Middle
[2] = 15 mg/kg, 6 h, dose level Middle

COc1ccc2c(c1)c(CC(=O)O)c(C)n2C(=O)c1ccc(Cl)cc1 [INDOMETHACIN] was tested, and the gamma-GTP (5 mg/kg, 9 h, dose level High) was 2.6 IU/L, the A/G (5 mg/kg, 9 h, dose level Low) was 1.7 and the ALP (5 mg/kg, 9 h, dose level Low) was 793.6 IU/L. For the same compound, the AST (5 mg/kg, 9 h, dose level Low) was 72.6 IU/L, the BUN (5 mg/kg, 9 h, dose level Low) was 9.8 mg/dL and the CRE (5 mg/kg, 9 h, dose level Low) was 0.3 mg/dL. For the same compound, the Ca (5 mg/kg, 9 h, dose level Low) was 10.3 mg/dL, the Cl (5 mg/kg, 9 h, dose level Low) was 104 meq/L and the DBIL (5 mg/kg, 9 h, dose level Low) was 0.076 mg/dL. For the same compound, the GLC (5 mg/kg, 9 h, dose level Low) was 197.6 mg/dL, the K (5 mg/kg, 9 h, dose level Low) was 3.8 meq/L and the LDH (5 mg/kg, 9 h, dose level Low) was 194 IU/L. It also gave a Na (5 mg/kg, 9 h, dose level Low) of 141.4 meq/L, a PL (5 mg/kg, 9 h, dose level Low) of 137 mg/dL and an RALB (5 mg/kg, 9 h, dose level Low) of 3.3 g/dL. For the same compound, the TBIL (5 mg/kg, 9 h, dose level Low) was 0.1 mg/dL, the TC (5 mg/kg, 9 h, dose level Low) was 76.2 mg/dL and the TG (5 mg/kg, 9 h, dose level Low) was 31.8 mg/dL. It also gave a gamma-GTP (5 mg/kg, 9 h, dose level Low) of 1.2 IU/L, a TERMINAL_BW (5 mg/kg, 24 h, dose level High) of 211.4 g and a TERMINAL_BW (5 mg/kg, 24 h, dose level Low) of 236.2 g. For the same compound, the APTT (5 mg/kg, 24 h, dose level High) was 17.1 s, the Bas (5 mg/kg, 24 h, dose level High) was 0% and the Eos (5 mg/kg, 24 h, dose level High) was 0.8%. It also gave a Fbg (5 mg/kg, 24 h, dose level High) of 232.2 mg/dL, a Hb (5 mg/kg, 24 h, dose level High) of 13 g/dL and a Ht (5 mg/kg, 24 h, dose level High) of 39.2%. For the same compound, the Lym (5 mg/kg, 24 h, dose level High) was 78%, the MCH (5 mg/kg, 24 h, dose level High) was 21.9 pg and the MCHC (5 mg/kg, 24 h, dose level High) was 33.2%. For the same compound, the MCV (5 mg/kg, 24 h, dose level High) was 65.9 fL, the Mono (5 mg/kg, 24 h, dose level High) was 8.2% and the Neu (5 mg/kg, 24 h, dose level High) was 13.4%. It also gave a PT (5 mg/kg, 24 h, dose level High) of 12.2 s, a Plat (5 mg/kg, 24 h, dose level High) of 100.7 x10_4/uL and an RBC (5 mg/kg, 24 h, dose level High) of 595.4 x10_4/ul. The Ret (5 mg/kg, 24 h, dose level High) was 9.8%, the WBC (5 mg/kg, 24 h, dose level High) was 116.2 x10_2/uL and the APTT (5 mg/kg, 24 h, dose level Low) was 18.6 s. The Bas (5 mg/kg, 24 h, dose level Low) was 0.8%, the Fbg (5 mg/kg, 24 h, dose level Low) was 249.8 mg/dL and the Hb (5 mg/kg, 24 h, dose level Low) was 13.2 g/dL. It also gave a Ht (5 mg/kg, 24 h, dose level Low) of 38.2%, a Lym (5 mg/kg, 24 h, dose level Low) of 65.8% and an MCH (5 mg/kg, 24 h, dose level Low) of 21.3 pg. It also gave an MCHC (5 mg/kg, 24 h, dose level Low) of 34.5%, an MCV (5 mg/kg, 24 h, dose level Low) of 61.7 fL and a Mono (5 mg/kg, 24 h, dose level Low) of 3.2%. The Neu (5 mg/kg, 24 h, dose level Low) was 29.2%, the PT (5 mg/kg, 24 h, dose level Low) was 11.6 s and the Plat (5 mg/kg, 24 h, dose level Low) was 117.7 x10_4/uL. It also gave an RBC (5 mg/kg, 24 h, dose level Low) of 619.8 x10_4/ul, a Ret (5 mg/kg, 24 h, dose level Low) of 7.2% and a WBC (5 mg/kg, 24 h, dose level Low) of 111.3 x10_2/uL. It also gave a KIDNEY_L (5 mg/kg, 24 h, dose level High) of 1 g, a KIDNEY_R (5 mg/kg, 24 h, dose level High) of 1 g and a KIDNEY_TOTAL (5 mg/kg, 24 h, dose level High) of 1.9 g. It also gave a KIDNEY_TOTAL (5 mg/kg, 24 h, dose level Low) of 2.1 g, an LIVER (5 mg/kg, 24 h, dose level High) of 9.9 g and an LIVER (5 mg/kg, 24 h, dose level Low) of 11.3 g. The A/G (5 mg/kg, 24 h, dose level High) was 2, the ALP (5 mg/kg, 24 h, dose level High) was 879 IU/L and the ALT (5 mg/kg, 24 h, dose level High) was 40.4 IU/L. It also gave an AST (5 mg/kg, 24 h, dose level High) of 70.2 IU/L, a BUN (5 mg/kg, 24 h, dose level High) of 15.4 mg/dL and a CRE (5 mg/kg, 24 h, dose level High) of 0.5 mg/dL. It also gave a Ca (5 mg/kg, 24 h, dose level High) of 10.4 mg/dL, a Cl (5 mg/kg, 24 h, dose level High) of 106.2 meq/L and a DBIL (5 mg/kg, 24 h, dose level High) of 0.006 mg/dL. It also gave a GLC (5 mg/kg, 24 h, dose level High) of 197.2 mg/dL, an IP (5 mg/kg, 24 h, dose level High) of 8.4 mg/dL and a K (5 mg/kg, 24 h, dose level High) of 4.9 meq/L. It also gave an LDH (5 mg/kg, 24 h, dose level High) of 146 IU/L, a Na (5 mg/kg, 24 h, dose level High) of 138.8 meq/L and a PL (5 mg/kg, 24 h, dose level High) of 133.4 mg/dL. For the same compound, the RALB (5 mg/kg, 24 h, dose level High) was 3.7 g/dL, the TBIL (5 mg/kg, 24 h, dose level High) was 0.3 mg/dL and the TC (5 mg/kg, 24 h, dose level High) was 77.4 mg/dL. It also gave a TG (5 mg/kg, 24 h, dose level High) of 65.2 mg/dL, a TP (5 mg/kg, 24 h, dose level High) of 5.6 g/dL and a gamma-GTP (5 mg/kg, 24 h, dose level High) of 1.4 IU/L. It also gave an A/G (5 mg/kg, 24 h, dose level Low) of 1.5, an ALP (5 mg/kg, 24 h, dose level Low) of 830.8 IU/L and an ALT (5 mg/kg, 24 h, dose level Low) of 35.8 IU/L. For the same compound, the AST (5 mg/kg, 24 h, dose level Low) was 70 IU/L, the BUN (5 mg/kg, 24 h, dose level Low) was 13.2 mg/dL and the CRE (5 mg/kg, 24 h, dose level Low) was 0.4 mg/dL. It also gave a Ca (5 mg/kg, 24 h, dose level Low) of 10.7 mg/dL, a Cl (5 mg/kg, 24 h, dose level Low) of 103.2 meq/L and a DBIL (5 mg/kg, 24 h, dose level Low) of 0.06 mg/dL. For the same compound, the GLC (5 mg/kg, 24 h, dose level Low) was 189.4 mg/dL, the IP (5 mg/kg, 24 h, dose level Low) was 7.6 mg/dL and the K (5 mg/kg, 24 h, dose level Low) was 3.9 meq/L. The LDH (5 mg/kg, 24 h, dose level Low) was 234.2 IU/L, the Na (5 mg/kg, 24 h, dose level Low) was 141.6 meq/L and the PL (5 mg/kg, 24 h, dose level Low) was 144.6 mg/dL. It also gave an RALB (5 mg/kg, 24 h, dose level Low) of 3.3 g/dL, a TBIL (5 mg/kg, 24 h, dose level Low) of 0.1 mg/dL and a TC (5 mg/kg, 24 h, dose level Low) of 73.6 mg/dL. It also gave a TG (5 mg/kg, 24 h, dose level Low) of 82.8 mg/dL, a TERMINAL_BW [1] of 223.8 g and an APTT [1] of 19.8 s. It also gave a Bas [1] of 0.6%, an Eos [1] of 0.4% and a Fbg [1] of 232.4 mg/dL. It also gave a Hb [1] of 13.8 g/dL, a Ht [1] of 37.8% and a Lym [1] of 74.8%. For the same compound, the MCH [1] was 22.8 pg, the MCHC [1] was 36.5% and the MCV [1] was 62.5 fL. For the same compound, the Mono [1] was 3.4%, the Neu [1] was 19.6% and the PT [1] was 11.6 s. For the same compound, the Plat [1] was 132.9 x10_4/uL, the RBC [1] was 605.2 x10_4/ul and the Ret [1] was 8.5%. For the same compound, the WBC [1] was 104.8 x10_2/uL, the KIDNEY_L [1] was 0.9 g and the KIDNEY_R [1] was 0.9 g. For the same compound, the KIDNEY_TOTAL [1] was 1.9 g, the LIVER [1] was 10.3 g and the A/G [1] was 1.5. For the same compound, the ALP [1] was 827 IU/L, the ALT [1] was 36.2 IU/L and the AST [1] was 73.6 IU/L. For the same compound, the BUN [1] was 13 mg/dL, the CRE [1] was 0.4 mg/dL and the Ca [1] was 10.8 mg/dL. It also gave a Cl [1] of 102.6 meq/L, a DBIL [1] of 0.072 mg/dL and a GLC [1] of 209.2 mg/dL. It also gave an IP [1] of 9.8 mg/dL, a K [1] of 4.1 meq/L and an LDH [1] of 219.2 IU/L. The Na [1] was 141.2 meq/L, the PL [1] was 151.6 mg/dL and the RALB [1] was 3.3 g/dL. It also gave a TBIL [1] of 0.1 mg/dL, a TC [1] of 84.8 mg/dL and a TG [1] of 64.8 mg/dL. It also gave a TP [1] of 5.5 g/dL, a gamma-GTP [1] of 1 IU/L and a TERMINAL_BW [2] of 220.7 g. For the same compound, the APTT [2] was 19 s, the Bas [2] was 0% and the Eos [2] was 0.6%. It also gave a Fbg [2] of 224 mg/dL.
